Tests used:
[1] = system: N. gonorrhoeae; test: MIC and synergy checkerboard assay, agar dilution on GC agar; assay type: cell-based
Experimental: Minimum inhibitory concentration (MIC) assays were performed in a manner as described for the CLSI Agar dilution or broth microdilution assay guideline (see, Clinical Laboratory Standards Institute, 2009, Methods for Dilution Antimicrobial Susceptibility Tests for Bacteria That Grow Aerobically; Approved Standard, Eighth Edition, M07-A8, Vol. 29, No. 2). For example, known antibiotics or the compositions described herein were dissolved, serially diluted, and then added to tempered molten Mueller-Hinton Agar before pouring of plates; or were dissolved, and then serially diluted in 100 μL cation-adjusted Mueller-Hinton broth across the assay plate in the classical 2-fold geometric format. D-glucose-6-phosphate was included as a medium supplement in both agar, and broth at a concentration of 50 mg/L. Antibiotic concentrations for agar assay were at the final concentration. Antibiotic concentrations for broth microdilution in each well at this point were double what the final assay concentration would be. Bacterial inocula were prepared by swabbing several colonies from a fresh agar plate, and re-suspending the bacteria to a density that was the 0.5 McFarland turbidity standard, considered close or equivalent to 1×10^8 CFU/mL. For agar dilution, a steers replicator was utilized to deliver 1×10^4 CFU/spot. For broth microdilution, the bacterial inocula were diluted in the cation-adjusted Mueller-Hinton broth to 1×10^6 CFU/mL, and 100 μL was overlayered onto the wells containing a diluted antibiotic or a composition described. Following incubation as per the guideline, results were recorded as growth or no growth, and the lowest concentration of the antibiotic or the composition described where no growth was observed was declared the MIC.
To assay for synergy of antibacterial combinations, a recognized synergy checkerboard assay, adapted from the CLSI guideline microdilution assay, was utilized (see Eliopoulos, G. M., and Moellering, R. C, Jr., 1996. Antimicrobial Combinations, pg. 330-396. In: Lorian, V. (Ed.), Antibiotics in Laboratory Medicine, 4th Ed., Williams & Wilkins; Baltimore, MD). In the case of the agar dilution method, each antibiotic alone, or in combination was added to agar prior to plate pouring. For broth microdilution, the first compound (or antibiotic or agent) was diluted in cation-adjusted Mueller-Hinton broth across the plate along the horizontal axis with each well in a row containing 50 μL of an identical concentration of compound (or antibiotic). Along the vertical axis a dilution series of the second compound (or antibiotic) was dispensed. At this point the drug concentrations are four-fold of the final desired working concentration. […] Following incubation, wells with no growth are noted. […] FIC=(MIC-A combination/MIC-A alone)+(MIC-B combination/MIC-B alone).
In the above, FIC: Synergy=FIC<0.5; Additive=FIC>0.5-1; Indifferent=FIC>1-2; Antagonism=FIC>2-4.
Synergy is also identified in TABLE 9 (utilizing the agar checkerboard assay) against N. gonorrhoeae. In these analyses, the agar dilution was performed utilizing GC agar supplemented with Isovitalex, and 50 mg/L of D-glucose-6-phosphate. […] MIC comparator data was performed using the following known antibiotics: Ceftriaxone, Azithromycin, Cefixime, Ciprofloxacin, Tetracycline, Pristinamycin, Solithromycin, and Delafloxacin. Pristinamycin was purified from capsules obtained in France; Solithromycin, and Delafloxacin were synthesized internally for comparison.

[2] = system: Pseudomonas aeruginosa; test: minimum bactericidal concentration (MBC) assay; assay type: cell-based
Experimental: Synergy was also assayed by both agar, and broth microdilution methods. Additional information gathered about the synergistic effect of the described composition as a combination therapy was evaluated by determining bacterial killing effect. This was performed as described above for the checkerboard synergy assay with the exception that the bacterial count in an assay well was determined by plating at the beginning of the experiment, and identifying at the end of incubation for an assay well where growth was inhibited. This has been adapted from both the broth microdilution, and the bactericidal assays (Clinical Laboratory Standards Institute (1999) Methods for Determining Bactericidal Activity of Antimicrobial Agents; Approved Guideline M26-A, Vol. 19, No. 18). […] The value derived was the reduction in bacterial numbers (viability) for the compounds when alone versus the described composition comprising the combined antibiotics.
As there is no published definition for bactericidal synergy, MIC metric was utilized.

C[C@@H]1O[C@@H]1P(=O)(O)O [Fosfomycin, cis-1,2-epoxypropyl phosphonic acid]
MIC (Combo as F/DP/SM; second compound as DP/SM) ([1]; N. gonorrhoeae 127781): 16 µg/mL | MIC (Combo as F/DP/SM; second compound as DP/SM) ([1]; N. gonorrhoeae 127782): 16 µg/mL | MIC (Combo as F/DP/SM; second compound as DP/SM) ([1]; N. gonorrhoeae 127783): 16 µg/mL | MIC (Combo as F/DP/SM; second compound as DP/SM) ([1]; N. gonorrhoeae 127786): 16 µg/mL | MIC (Combo as F/DP/SM; second compound as DP/SM) ([1]; N. gonorrhoeae 1117522): 16 µg/mL | MIC (Combo as F/DP/SM; second compound as DP/SM) ([1]; N. gonorrhoeae 1117523): 16 µg/mL | MIC (Combo as F/DP/SM; second compound as DP/SM) ([1]; N. gonorrhoeae 1117524): 8 µg/mL | MIC (Combo as F/DP/SM; second compound as DP/SM) ([1]; N. gonorrhoeae 1117525): 8 µg/mL | MIC (Combo as F/DP/SM; second compound as DP/SM) ([1]; N. gonorrhoeae 1117527): 8 µg/mL | MBC, lowest concentration providing a >3-log reduction within 24 hours (Combo as F/DP/SM; second compound as DP/SM) ([2]; Pseudomonas aeruginosa (924190)): >512 μg/ml | MBC, lowest concentration providing a >3-log reduction within 24 hours (Combo as F/DP/SM; second compound as DP/SM) ([2]; Pseudomonas aeruginosa (985543)): 512 μg/ml

Reference: patent publication US11925653B2, “Combination therapy effective against microorganisms, including drug resistant microorganisms” (Fleurir ABX LLC, priority 2021, dated 2024)
